Measured values as given in patent US20100022582A1, “Tetrahydroisoquinoline Compound and Medicinal Use Thereof” (priority 2005, published 2010).

Tests used:
[1] = system: brain homogenate lipid peroxidation; experiment: Lipid peroxidation-inhibitory action (brain homogenate, MDA); assay type: biochemical, SD rat; details: rat brain homogenate, 37° C. for 30 min
Experimental: The brain was removed from male SD rat, and a 50 mM phosphate buffer (pH 7.4, 5-fold amount of brain weight) was added. The mixture was homogenized under ice-cooling for 30 sec, and centrifuged at 4° C., 3200 rpm for 10 min. The supernatant was diluted 5-fold with 50 mM phosphate buffer to give a brain homogenate. A test compound (10 μL) was placed in a glass test tube, the brain homogenate (1 mL) was added, and the mixture was incubated at 37° C. for 30 min. 20% Trichloroacetic acid (1 mL) was added to quench the reaction. The reaction mixture was centrifuged at room temperature, 4000 rpm for 10 min. Thiobarbituric acid (0.2 mL) was added to the supernatant (1 mL) and the mixture was heated at 95° C. for 15 min. The absorbance at 532 nm was measured, and lipid peroxide was quantified as malondialdehyde (MDA). The MDA level was compared between the control and the test compound-added sample, and the lipid peroxidation inhibitory rate was calculated.

[2] = Stable radical elimination action (DPPH); details: 0.1 mM DPPH, room temperature for 60 min
Experimental: 0.1 mM Diphenyl-2-picrylhydrazyl (DPPH) acetonitrile (CH3CN) solution (3 mL) was placed in a glass test tube, and a DMSO solution of a test compound was added at a 1% dose (30 μL). As a control, 0.1 mM DPPH CH3CN solution (3 mL) containing DMSO (30 μL) was used and for a blank test, CH3CN (3 mL) containing DMSO (30 μL) was used. After standing the solutions at room temperature for 60 min (20 min for Examples 69, 72 and 73), the absorbance at 517 nm was measured by a spectrophotometer. A stable radical inhibitory rate when control was 100% was calculated from [(absorbance of test substance−absorbance of blank test)÷(absorbance of control−absorbance of blank test)].

[3] = system: THP-1 cell-derived macrophage; experiment: Cholesterol ester accumulation-inhibitory activity (THP-1 cell-derived macrophage foam cell formation); assay type: cell-based; details: THP-1 macrophage, acetyl LDL, 3 days
Experimental: THP-1 cells (DAINIPPON PHARMACEUTICAL CO., LTD.) were subcultured in RPMI-1640 medium containing 10% fetal calf serum (FBS), and cells at 6-13th passage after purchase were used. The cells were suspended in FBS-containing RPMI-1640 medium to give a suspension having a concentration of 4×10^5 cells/mL. The cell suspension was seeded on 12-well microplate by 1 mL, and treated with phorbol 12-myristate 13-acetate (PMA, 200 nM) as a differentiation inducer into macrophage. Then, acetyl LDL (400 μg/mL) separately prepared from LDL derived from plasma of a rabbit with genetic hyperlipidemia (KHC rabbit, Japan Laboratory Animals Inc.) was added. A test compound further dissolved in dimethyl sulfoxide (DMSO) and diluted with FBS-containing RPMI-1640 medium and a control solvent were applied. After cultivation in a carbon dioxide incubator for 3 days, the cells were washed with phosphate-buffered saline (pH 7.0), and the lipid was extracted with hexane-isopropanol (3:2). In addition, the cells were lysed with 1N-NaOH, and the protein content was measured. Free cholesterol and cholesterol ester in the lipid extraction sample were measured according to the method of Kunitomo et al. [Japan. J. Pharmacol., 34, 153-158 (1984)]. Cholesterol esters in the control cells and the cells treated with the test compound were compared, and the cholesterol ester accumulation inhibitory rate of the test compound was calculated.

SMILES | inhibitory rate (%) (10^−4M), lipid peroxidation [1] | inhibitory rate (%) (10^−4M), stable radical [2] | cholesteryl ester accumulation inhibitory rate (%) (concentration: 10^−6 M) [3]
CCCN(C)Cc1ccc2c(c1)CN(C(=O)C(C)(C)C)[C@H](C(=O)Nc1cc(C)c(O)c(C)c1C)C2 [Example 136, 2-(2,2-dimethylpropionyl)-N-(4-hydroxy-2,3,5-trimethylphenyl)-7-(N-methylpropylamino)methyl-1,2,3,4-tetrahydroisoquinoline-(3S)-carboxamide] | 89.6% | 71.3% | 66.4%
Cc1cc(NC(=O)[C@@H]2Cc3ccc(CN(C)CCF)cc3CN2C(=O)C(C)(C)C)c(C)c(C)c1O [Example 139, 2-(2,2-dimethylpropionyl)-7-(2-fluoro-N-methylethylamino)methyl-N-(4-hydroxy-2,3,5-trimethylphenyl)-1,2,3,4-tetrahydroisoquinoline-(3S)-carboxamide] | 99.7% | – | 84.6%
CCCN1Cc2cc(N(C)C)ccc2C[C@H]1C(=O)Nc1cc(C)c(O)c(C)c1C [Example 84, 7-dimethylamino-N-(4-hydroxy-2,3,5-trimethylphenyl)-2-propyl-1,2,3,4-tetrahydroisoquinoline-(3S)-carboxamide] | 100.9% | 71.9% | –
Cc1cc(NC(=O)[C@@H]2Cc3ccccc3CN2C(=O)C(C)C)c(C)c(C)c1O [Example 50, N-(4-hydroxy-2,3,5-trimethylphenyl)-2-isobutyryl-1,2,3,4-tetrahydroisoquinoline-(3S)-carboxamide] | 85.7% | – | –
CC(C)(C)CN1Cc2ccccc2C[C@H]1C(=O)Nc1cc(C(C)(C)C)c(O)c(C(C)(C)C)c1 [Example 47, N-(3,5-di-tert-butyl-4-hydroxyphenyl)-2-(2,2-dimethylpropyl)-1,2,3,4-tetrahydroisoquinoline-(3S)-carboxamide] | 100.1% | 66.1% | –
Cc1cc(NC(=O)[C@@H]2Cc3ccccc3CN2CC(C)(C)C)c(C)c(C)c1O.Cl [Example 48, 2-(2,2-dimethylpropyl)-N-(4-hydroxy-2,3,5-trimethylphenyl)-1,2,3,4-tetrahydroisoquinoline-(3S)-carboxamide hydrochloride] | 100.5% | 91.7% | –
CCCCCCCC(C)(C)CN1Cc2cc(OC(C)(C)C(=O)O)ccc2C[C@H]1c1cc(C)c(O)c(C)c1C [Example 132, 2-{[2-(2,2-dimethylnonyl)-(3S)-(4-hydroxy-2,3,5-trimethylphenyl)-1,2,3,4-tetrahydroisoquinolin-7-yl]oxy}-2-methylpropionic acid] | 105.6% | 80.7% | –
CCCCCN1Cc2ccccc2C[C@H]1C(=O)Nc1cc(C(C)(C)C)c(O)c(C(C)(C)C)c1 [Example 51, N-(3,5-di-tert-butyl-4-hydroxyphenyl)-2-pentyl-1,2,3,4-tetrahydroisoquinoline-(3S)-carboxamide] | 100.3% | 63.8% | –
CCCCC(=O)N1Cc2ccccc2C[C@H]1C(=O)Nc1cc(C(C)(C)C)c(O)c(C(C)(C)C)c1 [Example 13, N-(3,5-di-tert-butyl-4-hydroxyphenyl)-2-pentanoyl-1,2,3,4-tetrahydroisoquinoline-(3S)-carboxamide] | 100.1% | – | –
